Assay results reported in patent US7223835B2, “VEGF peptides and their use for inhibiting angiogenesis” (Ark Therapeutics Ltd., priority 2000, dated 2007).

Tested on: human endothelial cell-derived tubule formation
Assay: In vitro angiogenesis assay, endothelial cell-derived tubule formation in co-culture with human fibroblasts
Assay type: cell-based
Conditions: tubule formation at day 11, CD31 immunostaining, with and without VEGF; FIG. 4
Experimental: An in vitro angiogenesis assay based on human endothelial cell-derived tubule formation (TCS Biologicals) in a co-culture with human fibroblasts was used to investigate the effects of selected peptides on angiogenesis. The peptides, together with VEGF and other factors were added at the start of the experiment and at each medium change at days 4, 7 and 9. At day 11, the cultures were fixed with 70% ethanol for 30 min at room temperature and subsequently subjected to immunostaining for the endothelial cell adhesion molecule CD31. Fixed cells were incubated with the primary antibody (mouse anti-human CD31) for 1 h at 37° C., washed 3 times in blocking buffer (PBS containing 1% BSA), and then incubated with the secondary antibody (goat anti-mouse IgG conjugated to alkaline phosphatase) for 1 h at 37° C. After 3 washes in distilled water, the cells were finally incubated with the substrate solution for 10 min at 37° C. Immunostaining was observed and photographed using an inverted Zeiss microscope (Axiovert CFL25) fitted with a ×4 objective lens. […] A, VEGF released from untreated control during 11 days, measured by specific immunoassay; B, untreated control; C, VEGF; D, peptide 121–132; E, VEGF in the presence of peptide 121–132; F, peptide 125–136; and G, VEGF in the presence of peptide 125–136.

RKRKKSR [SEQ ID NO:21, 7-mer truncated derivative of the 12-mer V125–136 protein]
inhibition of angiogenesis (Chalkley count), potency compared with the 12-mer: inhibits angiogenesis with similar potency to the 12-mer
